Legend:
Test in all cases: KINOMEscan competition binding
Conditions in all cases: compound 0.5 µM
[1] = molecular target: AAK1 (human) (UniProt Q2M2I8)
[2] = test system: ABL1 (human), P00519 [M351T]
[3] = molecular target: ACVR2A (human) (UniProt P27037)
[4] = molecular target: ACVR2B (human) (UniProt Q13705)
[5] = molecular target: ALK (human) (UniProt Q9UM73)
[6] = molecular target: CDC2L2 (human) (UniProt Q9UQ88)
[7] = molecular target: CLK4 (human) (UniProt Q9HAZ1)
[8] = molecular target: CRK2 (P.falciparum) (UniProt P61075)
[9] = molecular target: CSF1R (human) (UniProt P07333)
[10] = molecular target: CSNK1A1L (human) (UniProt Q8N752)
[11] = molecular target: DAPK3 (human) (UniProt O43293)
[12] = molecular target: DCLK1 (human) (UniProt O15075)
[13] = molecular target: DSTYK (human) (UniProt Q6XUX3)
[14] = molecular target: DYRK1A (human) (UniProt Q13627)
[15] = molecular target: EIF2AK1 (human) (UniProt Q9BQI3)
[16] = molecular target: EPHA5 (human) (UniProt P54756)
[17] = molecular target: EPHB3 (human) (UniProt P54753)
[18] = molecular target: HIPK1 (human) (UniProt Q86Z02)
[19] = molecular target: INSRR (human) (UniProt P14616)
[20] = molecular target: KIT (human) (UniProt P10721)
[21] = test system: KIT (human), P10721 [D816V]
[22] = molecular target: MAPK6 (human) (UniProt Q16659)
[23] = molecular target: MARK1 (human) (UniProt Q9P0L2)
[24] = molecular target: MYO3B (human) (UniProt Q8WXR4)
[25] = molecular target: OXSR1 (human) (UniProt O95747)
[26] = molecular target: PAK6 (human) (UniProt Q9NQU5)
[27] = molecular target: PDPK1 (human) (UniProt O15530)
[28] = molecular target: PI4KB (human) (UniProt Q9UBF8)
[29] = molecular target: PIK3C2G (human) (UniProt O75747)
[30] = molecular target: PIM1 (human) (UniProt P11309)
[31] = molecular target: PIM2 (human) (UniProt Q9P1W9)
[32] = molecular target: PRKCH (human) (UniProt P24723)
[33] = molecular target: PRKG2 (human) (UniProt Q13237)
[34] = molecular target: PTK6 (human) (UniProt Q13882)
[35] = molecular target: RAF1 (human) (UniProt P04049)
[36] = test system: RET (human), P07949 [V804M]
[37] = molecular target: RPS6KA5 KD1 (human) (UniProt O75582)
[38] = molecular target: SGK3 (human) (UniProt Q96BR1)
[39] = molecular target: TBK1 (human) (UniProt Q9UHD2)
[40] = molecular target: TNIK (human) (UniProt Q9UKE5)
[41] = molecular target: TRPM6 (human) (UniProt Q9BX84)
[42] = molecular target: WEE1 (human) (UniProt P30291)

Chain of EIF2AK1 (human) (Q9BQI3 whole entry, looked up): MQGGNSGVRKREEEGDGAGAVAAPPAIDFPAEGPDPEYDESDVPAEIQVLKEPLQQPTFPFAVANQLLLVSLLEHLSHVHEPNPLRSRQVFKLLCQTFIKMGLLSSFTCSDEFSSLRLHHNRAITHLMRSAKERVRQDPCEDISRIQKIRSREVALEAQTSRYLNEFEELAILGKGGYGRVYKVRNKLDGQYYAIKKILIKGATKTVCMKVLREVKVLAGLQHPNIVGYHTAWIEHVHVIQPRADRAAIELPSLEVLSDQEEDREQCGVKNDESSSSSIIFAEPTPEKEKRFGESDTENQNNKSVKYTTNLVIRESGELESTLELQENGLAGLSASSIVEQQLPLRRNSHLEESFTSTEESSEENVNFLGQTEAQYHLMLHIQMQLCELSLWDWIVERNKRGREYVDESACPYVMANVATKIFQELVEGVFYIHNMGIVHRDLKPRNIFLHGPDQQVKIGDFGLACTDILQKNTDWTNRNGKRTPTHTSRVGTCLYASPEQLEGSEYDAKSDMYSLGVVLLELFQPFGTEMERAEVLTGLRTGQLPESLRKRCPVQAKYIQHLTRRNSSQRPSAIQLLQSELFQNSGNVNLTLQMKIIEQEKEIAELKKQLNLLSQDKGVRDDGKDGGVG
Chain of PDPK1 (human) (O15530 whole entry, looked up): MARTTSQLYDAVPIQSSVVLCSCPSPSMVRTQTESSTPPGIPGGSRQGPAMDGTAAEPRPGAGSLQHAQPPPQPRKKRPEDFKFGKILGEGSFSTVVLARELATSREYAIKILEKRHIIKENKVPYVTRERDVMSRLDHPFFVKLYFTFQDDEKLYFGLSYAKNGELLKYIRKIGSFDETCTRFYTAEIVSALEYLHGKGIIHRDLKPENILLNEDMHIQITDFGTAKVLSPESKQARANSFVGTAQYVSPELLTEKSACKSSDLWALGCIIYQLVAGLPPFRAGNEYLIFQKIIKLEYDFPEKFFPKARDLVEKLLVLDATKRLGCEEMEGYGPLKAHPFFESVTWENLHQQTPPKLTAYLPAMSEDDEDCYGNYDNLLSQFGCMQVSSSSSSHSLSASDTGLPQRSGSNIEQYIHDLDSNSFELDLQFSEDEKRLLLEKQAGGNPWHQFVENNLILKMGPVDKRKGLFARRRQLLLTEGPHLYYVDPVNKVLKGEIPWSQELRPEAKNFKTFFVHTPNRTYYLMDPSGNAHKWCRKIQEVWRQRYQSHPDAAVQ
Chain of DAPK3 (human) (O43293 whole entry, looked up): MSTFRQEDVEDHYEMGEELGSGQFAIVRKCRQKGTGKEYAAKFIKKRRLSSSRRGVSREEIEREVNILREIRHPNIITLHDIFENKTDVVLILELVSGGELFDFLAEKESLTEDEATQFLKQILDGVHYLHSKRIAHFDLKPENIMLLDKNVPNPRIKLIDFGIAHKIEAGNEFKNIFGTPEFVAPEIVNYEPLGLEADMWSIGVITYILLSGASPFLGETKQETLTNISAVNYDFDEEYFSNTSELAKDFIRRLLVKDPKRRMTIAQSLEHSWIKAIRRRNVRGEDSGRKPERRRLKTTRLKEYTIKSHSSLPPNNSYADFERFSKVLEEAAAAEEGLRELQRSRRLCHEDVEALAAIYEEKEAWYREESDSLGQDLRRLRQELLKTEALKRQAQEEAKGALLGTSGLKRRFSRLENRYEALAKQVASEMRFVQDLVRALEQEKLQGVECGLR
Chain of PI4KB (human) (Q9UBF8 whole entry, looked up): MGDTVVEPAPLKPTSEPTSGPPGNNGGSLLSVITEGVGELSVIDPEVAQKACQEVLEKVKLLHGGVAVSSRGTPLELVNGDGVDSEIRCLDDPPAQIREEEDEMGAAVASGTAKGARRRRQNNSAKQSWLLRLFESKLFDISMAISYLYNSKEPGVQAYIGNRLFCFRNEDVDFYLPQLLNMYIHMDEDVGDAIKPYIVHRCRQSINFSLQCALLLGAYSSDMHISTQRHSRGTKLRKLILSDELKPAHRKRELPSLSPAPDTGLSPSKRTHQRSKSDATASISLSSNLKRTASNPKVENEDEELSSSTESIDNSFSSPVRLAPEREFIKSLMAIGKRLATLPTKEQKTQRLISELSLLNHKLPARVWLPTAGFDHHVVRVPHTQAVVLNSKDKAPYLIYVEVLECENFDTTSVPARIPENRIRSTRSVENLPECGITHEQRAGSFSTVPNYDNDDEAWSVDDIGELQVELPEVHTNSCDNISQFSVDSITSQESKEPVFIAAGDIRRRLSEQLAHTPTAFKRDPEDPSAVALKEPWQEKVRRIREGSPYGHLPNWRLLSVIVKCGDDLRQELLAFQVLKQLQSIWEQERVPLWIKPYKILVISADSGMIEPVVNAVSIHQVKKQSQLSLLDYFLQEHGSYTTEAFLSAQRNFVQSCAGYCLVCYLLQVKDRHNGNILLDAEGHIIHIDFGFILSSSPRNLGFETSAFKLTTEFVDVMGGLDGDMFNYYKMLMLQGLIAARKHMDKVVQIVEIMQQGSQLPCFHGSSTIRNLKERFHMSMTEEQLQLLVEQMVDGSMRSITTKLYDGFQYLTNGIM
Chain of TRPM6 (human) (Q9BX84 whole entry, looked up): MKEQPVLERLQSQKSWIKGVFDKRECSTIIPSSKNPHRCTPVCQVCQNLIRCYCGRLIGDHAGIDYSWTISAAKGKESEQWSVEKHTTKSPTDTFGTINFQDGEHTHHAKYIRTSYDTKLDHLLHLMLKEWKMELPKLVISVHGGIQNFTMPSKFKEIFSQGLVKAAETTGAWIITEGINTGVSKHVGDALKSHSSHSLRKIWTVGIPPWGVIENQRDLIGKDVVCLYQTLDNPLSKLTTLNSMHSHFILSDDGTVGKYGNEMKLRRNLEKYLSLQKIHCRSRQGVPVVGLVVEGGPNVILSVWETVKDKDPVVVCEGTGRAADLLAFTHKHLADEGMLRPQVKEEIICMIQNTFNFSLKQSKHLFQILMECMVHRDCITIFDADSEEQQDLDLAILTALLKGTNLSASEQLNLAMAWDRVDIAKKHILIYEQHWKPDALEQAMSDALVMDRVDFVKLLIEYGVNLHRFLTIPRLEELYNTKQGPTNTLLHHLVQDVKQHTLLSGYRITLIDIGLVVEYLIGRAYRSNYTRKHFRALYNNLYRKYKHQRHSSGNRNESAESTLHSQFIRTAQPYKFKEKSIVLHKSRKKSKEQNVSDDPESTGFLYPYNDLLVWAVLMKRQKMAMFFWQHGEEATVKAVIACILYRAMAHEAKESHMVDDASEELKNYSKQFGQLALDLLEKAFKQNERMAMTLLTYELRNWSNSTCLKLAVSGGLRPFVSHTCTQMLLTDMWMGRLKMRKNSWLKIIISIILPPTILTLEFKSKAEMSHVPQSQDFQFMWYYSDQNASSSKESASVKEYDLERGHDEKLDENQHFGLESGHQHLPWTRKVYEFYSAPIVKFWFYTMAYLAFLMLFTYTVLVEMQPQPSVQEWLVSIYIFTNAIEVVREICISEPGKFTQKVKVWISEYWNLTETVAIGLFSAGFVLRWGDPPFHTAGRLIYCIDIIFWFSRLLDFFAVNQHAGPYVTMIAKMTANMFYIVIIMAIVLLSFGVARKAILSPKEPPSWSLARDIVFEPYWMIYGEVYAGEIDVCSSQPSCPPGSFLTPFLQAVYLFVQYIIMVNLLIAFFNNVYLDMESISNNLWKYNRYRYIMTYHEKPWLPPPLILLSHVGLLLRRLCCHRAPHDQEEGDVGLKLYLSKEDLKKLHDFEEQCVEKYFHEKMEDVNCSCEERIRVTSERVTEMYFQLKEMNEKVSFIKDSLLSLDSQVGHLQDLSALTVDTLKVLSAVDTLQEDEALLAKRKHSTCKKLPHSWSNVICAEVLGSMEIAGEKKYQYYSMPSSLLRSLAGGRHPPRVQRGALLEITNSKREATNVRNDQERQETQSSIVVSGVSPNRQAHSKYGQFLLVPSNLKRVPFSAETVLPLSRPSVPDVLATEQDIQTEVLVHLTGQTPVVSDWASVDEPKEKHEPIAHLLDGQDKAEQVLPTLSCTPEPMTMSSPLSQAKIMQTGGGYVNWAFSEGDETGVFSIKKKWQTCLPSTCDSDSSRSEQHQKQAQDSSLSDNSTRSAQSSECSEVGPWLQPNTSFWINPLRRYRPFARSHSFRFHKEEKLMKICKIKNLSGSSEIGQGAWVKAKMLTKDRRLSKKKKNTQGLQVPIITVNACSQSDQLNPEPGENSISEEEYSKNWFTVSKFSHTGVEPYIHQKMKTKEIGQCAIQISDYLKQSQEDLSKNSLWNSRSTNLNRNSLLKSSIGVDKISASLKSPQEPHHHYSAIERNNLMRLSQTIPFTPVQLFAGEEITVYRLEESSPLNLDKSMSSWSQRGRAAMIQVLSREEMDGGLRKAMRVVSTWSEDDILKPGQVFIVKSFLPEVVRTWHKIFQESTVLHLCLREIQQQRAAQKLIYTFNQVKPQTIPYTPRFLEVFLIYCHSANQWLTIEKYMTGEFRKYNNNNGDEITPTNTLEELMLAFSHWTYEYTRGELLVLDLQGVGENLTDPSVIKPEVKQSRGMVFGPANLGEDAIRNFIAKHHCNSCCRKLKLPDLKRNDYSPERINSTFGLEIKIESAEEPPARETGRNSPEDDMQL
Chain of CSNK1A1L (human) (Q8N752 whole entry, looked up): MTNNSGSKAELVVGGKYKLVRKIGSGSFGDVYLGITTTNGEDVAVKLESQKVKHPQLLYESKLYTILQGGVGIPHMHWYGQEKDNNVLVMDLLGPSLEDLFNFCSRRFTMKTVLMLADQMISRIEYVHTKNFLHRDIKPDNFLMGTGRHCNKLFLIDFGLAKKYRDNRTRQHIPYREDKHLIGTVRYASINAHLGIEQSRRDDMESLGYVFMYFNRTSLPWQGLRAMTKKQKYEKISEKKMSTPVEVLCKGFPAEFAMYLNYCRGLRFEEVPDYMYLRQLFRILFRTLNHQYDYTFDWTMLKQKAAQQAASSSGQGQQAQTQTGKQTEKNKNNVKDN

Cn1c2ccccc2c2c3c(c4c5ccccc5n(CCC#N)c4c21)CNC3=O
kinase still bound, per cent of control [1]: 0.55%
kinase still bound, per cent of control [2]: 88%
kinase still bound, per cent of control [3]: 100%
kinase still bound, per cent of control [4]: 97%
kinase still bound, per cent of control [5]: 2.1%
kinase still bound, per cent of control [6]: 84%
kinase still bound, per cent of control [7]: 6.1%
kinase still bound, per cent of control [8]: 85%
kinase still bound, per cent of control [9]: 37%
kinase still bound, per cent of control [10]: 100%
kinase still bound, per cent of control [11]: 75%
kinase still bound, per cent of control [12]: 87%
kinase still bound, per cent of control [13]: 2%
kinase still bound, per cent of control [14]: 6.4%
kinase still bound, per cent of control [15]: 100%
kinase still bound, per cent of control [16]: 96%
kinase still bound, per cent of control [17]: 85%
kinase still bound, per cent of control [18]: 32%
kinase still bound, per cent of control [19]: 100%
kinase still bound, per cent of control [20]: 81%
kinase still bound, per cent of control [21]: 2%
kinase still bound, per cent of control [22]: 74%
kinase still bound, per cent of control [23]: 64%
kinase still bound, per cent of control [24]: 100%
kinase still bound, per cent of control [25]: 100%
kinase still bound, per cent of control [26]: 1.4%
kinase still bound, per cent of control [27]: 41%
kinase still bound, per cent of control [28]: 62%
kinase still bound, per cent of control [29]: 70%
kinase still bound, per cent of control [30]: 32%
kinase still bound, per cent of control [31]: 100%
kinase still bound, per cent of control [32]: 18%
kinase still bound, per cent of control [33]: 11%
kinase still bound, per cent of control [34]: 77%
kinase still bound, per cent of control [35]: 100%
kinase still bound, per cent of control [36]: 0%
kinase still bound, per cent of control [37]: 52%
kinase still bound, per cent of control [38]: 72%
kinase still bound, per cent of control [39]: 92%
kinase still bound, per cent of control [40]: 0.3%
kinase still bound, per cent of control [41]: 81%
kinase still bound, per cent of control [42]: 100%
